Structures are written as SMILES.

The target in assay [1] is T1, human ERα binding to flcERE (Homo sapiens, UniProt P03372).
T1 construct: Full-length FLAG-tagged human ERα was expressed and purified as described previously (27); FLAG; made in house
T1 sequence (P03372 1-595): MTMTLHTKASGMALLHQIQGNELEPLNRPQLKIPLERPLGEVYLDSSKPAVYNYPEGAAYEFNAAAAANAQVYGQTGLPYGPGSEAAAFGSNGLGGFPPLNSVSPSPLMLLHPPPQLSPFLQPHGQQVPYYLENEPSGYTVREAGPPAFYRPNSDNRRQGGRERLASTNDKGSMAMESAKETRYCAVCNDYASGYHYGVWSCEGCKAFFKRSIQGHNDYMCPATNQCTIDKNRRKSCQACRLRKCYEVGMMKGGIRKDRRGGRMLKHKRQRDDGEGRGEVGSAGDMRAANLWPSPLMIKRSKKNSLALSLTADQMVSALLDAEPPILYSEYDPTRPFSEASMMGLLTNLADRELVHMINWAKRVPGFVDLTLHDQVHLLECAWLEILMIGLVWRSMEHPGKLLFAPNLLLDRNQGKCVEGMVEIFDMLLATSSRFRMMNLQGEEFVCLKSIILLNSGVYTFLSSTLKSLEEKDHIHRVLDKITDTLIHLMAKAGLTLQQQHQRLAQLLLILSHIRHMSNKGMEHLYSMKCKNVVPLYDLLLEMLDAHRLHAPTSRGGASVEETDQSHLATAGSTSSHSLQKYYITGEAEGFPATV
In words: FAMA: inhibition of ERα binding to flcERE. The note with it: FAMA, binding to HRE, 5 concentrations 0.5-10 μM, sequential method; read-out: IC50 ERα. The protocol:
Prior to screening, the 10 mM library stocks were diluted to produce replica libraries in 384-well plates containing each small molecule at 0.25 mM (in DMSO). In our initial studies we were concerned that forming the flcERE-ERα complex first and then adding the candidate small molecule inhibitors would miss small molecules that bind at the interface. We therefore screened using the “sequential” method in which the candidate small molecules were first incubated with ERα and followed by addition of the flcERE. The assay for binding of ERα to the flcERE is a modification of our earlier assay (27). Assays were carried out at room temperature in black wall 384-well microplates (Greiner/Bio-One) in a total volume of 10 μl in buffer containing 20 mM Tris pH 7.5, 10% glycerol, 0.2 mM EDTA, 2 mM DTT, 100 mM KCl, 0.5 ng/μl poly dl:dC, […] bovine serum albumin and 100 nM 17β-estradiol (E2). For high throughput screening, a master mix without ERα and probe was prepared at 4° C. The master mix was divided into 2 parts. ERα was added to one part to 5 nM in the final assays. 7 μl of the ERα-containing mix was then dispensed into each well of a 384-well plate on ice. 100 nl of the compounds being tested was then added using a pin-transporter (V & P Scientific, Inc, CA) to a final concentration of 2.5 μM. The samples were mixed using the pin-transporter and sedimented by centrifugation for 2 min. at 4° C. and incubated on ice for 10 min. The flcERE probe was added to the other aliquot of the mix to 1 nM. 3 μl of the mix containing the flcERE probe was added to each well containing ERα and the test compound. The samples were mixed using the pin-transporter, the plates were briefly centrifuged and incubated at room temperature for 10 min. and fluorescence anisotropy (FA) was measured using a BMG PheraStar (BMG Labtech) microplate reader (module: 485 520) with excitation at 485λ and emission at 520λ. To identify small molecules that were highly fluorescent, or quench fluorescence, fluorescence intensity was also measured.
(§1) Dose response curves for selected compounds were carried out as described for the HTS screen except that each well contained the indicated concentration of test compound. PR assays were carried out in the same buffer used for ERα assays and contained 1 nM flcPRE and 11 nM PR-B and 100 nM progesterone. The buffer used for AR was similar but also contained 5 μM ZnCl, 5 mM NaF, 0.6 μM CHAPS and 100 nM dihydrotestosterone. AR assays contained 1 nM flcARE and 50 nM full-length wild-type AR.

Assay [2] addresses T2, human androgen receptor (AR) binding to flARE (Homo sapiens, UniProt P10275).
T2 construct: AR assays contained 1 nM flcARE and 50 nM full-length wild-type AR; FLAG; made in house
T2 sequence (P10275 1-920): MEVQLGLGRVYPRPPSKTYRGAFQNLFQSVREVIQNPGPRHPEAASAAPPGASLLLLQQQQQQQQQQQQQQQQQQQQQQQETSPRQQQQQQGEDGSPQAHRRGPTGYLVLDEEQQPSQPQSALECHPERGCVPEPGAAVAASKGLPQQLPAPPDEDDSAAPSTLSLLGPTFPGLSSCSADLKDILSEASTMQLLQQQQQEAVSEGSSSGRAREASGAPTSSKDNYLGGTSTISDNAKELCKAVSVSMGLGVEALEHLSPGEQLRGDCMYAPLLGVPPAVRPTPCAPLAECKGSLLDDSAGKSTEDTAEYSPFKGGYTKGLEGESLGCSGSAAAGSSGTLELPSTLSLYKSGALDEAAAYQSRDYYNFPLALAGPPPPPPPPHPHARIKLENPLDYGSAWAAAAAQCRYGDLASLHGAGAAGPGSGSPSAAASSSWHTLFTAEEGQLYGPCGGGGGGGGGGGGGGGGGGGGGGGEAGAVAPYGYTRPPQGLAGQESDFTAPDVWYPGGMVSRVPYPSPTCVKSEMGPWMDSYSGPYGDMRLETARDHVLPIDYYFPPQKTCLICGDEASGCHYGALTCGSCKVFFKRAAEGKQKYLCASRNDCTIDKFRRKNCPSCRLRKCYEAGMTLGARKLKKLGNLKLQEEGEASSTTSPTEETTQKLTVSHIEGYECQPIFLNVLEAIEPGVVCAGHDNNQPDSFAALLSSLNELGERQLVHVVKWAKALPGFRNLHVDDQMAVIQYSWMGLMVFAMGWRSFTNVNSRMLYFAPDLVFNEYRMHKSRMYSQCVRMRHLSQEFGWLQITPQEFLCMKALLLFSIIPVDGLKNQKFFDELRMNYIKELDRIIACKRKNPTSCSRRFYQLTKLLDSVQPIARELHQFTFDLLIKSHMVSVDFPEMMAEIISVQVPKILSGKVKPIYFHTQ
Nature of the assay: FAMA: inhibition of AR binding to flcARE. The note with it: binding to HRE, 5 concentrations 0.5-10 μM, sequential method. The protocol: as §1
(§2) Specificity was evaluated in dose-response studies by quantitative FAMA using purified full-length human PR binding to a fluorescein-labeled progesterone/glucocorticoid response element (flPRE) and full-length human androgen receptor (AR) binding to a fluorescein-labeled androgen response element (flARE).

The target of assay [3] is T3, human PR-B binding to flPRE (Homo sapiens, UniProt P06401).
T3 construct: FLAG; made in house
T3 sequence (P06401 1-933): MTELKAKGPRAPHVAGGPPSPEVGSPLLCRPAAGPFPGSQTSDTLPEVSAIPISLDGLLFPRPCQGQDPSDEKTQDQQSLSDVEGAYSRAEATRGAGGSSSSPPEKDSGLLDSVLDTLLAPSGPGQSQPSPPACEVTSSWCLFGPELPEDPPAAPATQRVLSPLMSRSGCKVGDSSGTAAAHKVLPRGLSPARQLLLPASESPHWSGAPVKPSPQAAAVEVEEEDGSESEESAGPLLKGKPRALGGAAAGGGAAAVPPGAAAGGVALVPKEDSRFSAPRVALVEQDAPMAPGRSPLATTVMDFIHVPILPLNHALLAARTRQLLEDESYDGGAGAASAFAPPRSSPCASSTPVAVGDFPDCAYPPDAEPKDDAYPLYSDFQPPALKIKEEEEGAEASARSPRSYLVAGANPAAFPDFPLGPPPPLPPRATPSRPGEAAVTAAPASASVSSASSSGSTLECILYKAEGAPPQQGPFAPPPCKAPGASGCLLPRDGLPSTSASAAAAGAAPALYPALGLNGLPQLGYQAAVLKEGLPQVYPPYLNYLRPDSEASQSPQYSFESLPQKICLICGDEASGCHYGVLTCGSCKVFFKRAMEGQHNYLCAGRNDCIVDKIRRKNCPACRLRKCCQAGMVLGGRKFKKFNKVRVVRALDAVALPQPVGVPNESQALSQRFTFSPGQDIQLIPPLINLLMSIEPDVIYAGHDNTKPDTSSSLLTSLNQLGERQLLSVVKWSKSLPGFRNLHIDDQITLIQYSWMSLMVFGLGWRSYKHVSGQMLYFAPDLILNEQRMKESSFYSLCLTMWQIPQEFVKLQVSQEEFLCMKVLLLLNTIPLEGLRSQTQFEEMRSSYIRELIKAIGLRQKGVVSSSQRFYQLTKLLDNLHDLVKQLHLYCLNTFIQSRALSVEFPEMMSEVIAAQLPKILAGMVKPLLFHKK
In words: FAMA: inhibition of PR binding to flcPRE. The note with it: binding to HRE, 5 concentrations 0.5-10 μM, sequential method. The protocol:
as §1, §2

With `c1ccc(-c2oc(-c3ccccc3)c(CN3CCCCC3)c2CN2CCCCC2)cc1` [Compound 7473], the IC50 in assay [1] is 9 µM; in assay [2], more than 10 µM; in assay [3] it was more than 10 µM.

For the compound `Cc1ccccc1NCC(C)O` (stereo not drawn) [Compound 7484], the IC50 in assay [1] was 9.5 µM; in assay [2], more than 10 µM; in assay [3] it was more than 10 µM.

For the compound `O=C(O)c1cccc2cccc(-c3cccc4cccc(C(=O)O)c34)c12` [Compound 7810], the IC50 in assay [1], in assay [2] and in assay [3] was more than 10 µM each time.

On to `C=CCOC(=O)c1ccc(Cl)cc1` [Compound 8216], for which the IC50 is 9 µM in assay [1], more than 10 µM in assay [2] and more than 10 µM in assay [3].

With `O=C1C(CO)C(CO)C(CO)C1CO` (stereo not drawn) [Compound 9064], the IC50 in assay [1], in assay [2] and in assay [3] was more than 10 µM throughout.

With `CCCCCCC1(c2cccnc2)NC(=O)NC1=O` (stereo not drawn) [Compound 9503], the IC50 was 2.6 µM in assay [1], more than 10 µM in assay [2] and more than 10 µM in assay [3].

`Nc1c(S(=O)(=O)O)cc(Nc2ccc(S(=O)(=O)O)c(Nc3nc(Cl)nc(Cl)n3)c2)c2c1C(=O)c1ccccc1C2=O` [Compound 9545]: the IC50 stood at 0.7 µM in assay [1], 3 µM in assay [2] and 3.8 µM in assay [3].

In the case of `CCN(CC)CCOc1ccc(Cl)cc1Cc1ccccc1` [Compound 9548], the IC50 was found to be 1 µM in assay [1], 4 µM in assay [2] and 5 µM in assay [3].

Consider `CCCCCN(CCCCC)CCC(O)c1cccc2ccccc12` (stereo not drawn) [Compound 9671], for which the IC50 in assay [1], in assay [2] and in assay [3] was more than 10 µM throughout.

With `O=C(Nc1cc[c]([Sb](=[O])([OH])[OH])cc1)c1ccccc1` [Compound 15596], the IC50 in assay [1] was 5 µM; in assay [2], more than 10 µM; in assay [3] it was more than 10 µM.

As to `[Cu].c1ccc2c(c1)C1=NC2=NC2=NC(=NC3=NC(=NC4=NC(=N1)c1ccccc14)c1ccccc13)c1ccccc12` [Compound 43628], the IC50 in assay [1], in assay [2] and in assay [3] was more than 10 µM in each case.

Take `O=C1NC(=S)NC(=O)C1=Cc1cccc2cc3ccccc3cc12` [Compound 90737]: the IC50 was 10 µM in assay [1], more than 10 µM in assay [2] and more than 10 µM in assay [3].

Turning to `CC1=NNC(=S)NCCCN2CCN(CCCNC(=S)NN=C(C)C=NNC(=S)NCCCN3CCN(CCCNC(=S)NN=C1)CC3)CC2` [Compound 91767], the results for the concentration for half-maximal inhibition (IC50) in assay [1], in assay [2] and in assay [3] were 8 µM, more than 10 µM and more than 10 µM, respectively.

With `O=C(O)c1cccc(N=Nc2c(S(=O)(=O)O)ccc3c2C(=O)c2ccccc2C3=O)c1O` [Compound 125908], the values for the IC50 in assay [1], in assay [2] and in assay [3] were 3.8 µM, more than 10 µM and more than 10 µM, respectively.

With `N#CC(C#N)=CNCCN1CCN(C=C(C#N)C#N)CC1` [Compound 343040], the IC50 in assay [1], in assay [2] and in assay [3] was more than 10 µM each time.

For the compound `O=C(O)c1nn(-c2ccc(Cl)cc2)c2c1C(=O)c1ccccc1C2=O` [Compound 360494], the IC50 in assay [1], in assay [2] and in assay [3] was more than 10 µM throughout.

As to `CN1CCc2[nH]nc(-c3n[nH]c4c3CN(C)CC4)c2C1` [Compound 371847], the IC50 in assay [1], in assay [2] and in assay [3] was more than 10 µM throughout.
